Results from ChEMBL document CHEMBL1201862, “PubChem BioAssay data set” (2004).
The source made the active and inactive calls.

Legend:
cells [1] = experiment: cells
[2] = molecular target: Oxysterols receptor LXR-beta (Homo sapiens, UniProt P55055); format: functional, cell-based;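 also: Cell-based luminescence dose-response assay of agonist activity at LXR, run as a confirmatory counterscreen to a daf-12 agonist screen; HEK293 cells with Gal4-LXR fusion and GAL4-driven luciferase reporter; agonist potency from rising luciferase signal of a Gal4-LXR reporter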
[3] = Late stage assay provider results from the probe development effort to identify selective inhibitors of heat shock protein 90 (HSP90): Absorbance-based cell proliferation assay in SKBR3 cells.; format: functional; settings: SK-BR-3
[4] = viability loss in THP-1 monocytes – THP-1 cells, cytotoxicity control for Vif-APOBEC3G degradation inhibitor project, dose response (AID 1117359); format: functional; settings: THP-1
[5] = molecular target: Heat shock protein HSP 90-alpha (Homo sapiens, UniProt P07900); experiment: Luminescence-based dose response biochemical high throughput screening assay for inhibitors of the Heat Shock Protein 90 (HSP90). [Related pubchem assays: 1831 (Summary AID.), 1846 (Confirmation screen.), 1789 (Primary screen.)]
[6] = Late stage assay provider results from the probe development effort to identify selective inhibitors of heat shock protein 90 (HSP90): Absorbance-based cell proliferation assay in MCF7 cells.; format: functional
cells [7] = settings: HEK293
[8] = Dd2 parasite growth inhibition in erythrocytes – SYBR Green, dry powder samples, set 9, dose response (AID 1159568); format: functional, cell-based
[9] = molecular target: Potassium channel subfamily K member 3 (Homo sapiens, UniProt O14649); experiment: inhibition of human KCNK3 channel flux – CHO cells, FluxOR thallium flux, SAR follow-up (AID 652212); format: functional
[10] = molecular target: Potassium channel subfamily K member 9 (Homo sapiens, UniProt Q9NPC2); experiment: KCNK9 flux blockade, concentration-response – cell-based, FluxOR thallium flux, selectivity assay for TASK1 inhibitor project, SAR follow-up (AID 652211); format: functional;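 also: potency is for inhibitors of the channel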
[11] = molecular target: Voltage-gated inwardly rectifying potassium channel KCNH2 (Homo sapiens, UniProt Q12809); experiment: off-target hERG block by TASK1 inhibitor candidates – FluxOR thallium flux, concentration-response, CHO cells, selectivity assay for TASK1 inhibitor project, SAR follow-up (AID 652194); format: functional, cell-based
Fatty acid synthase = Fatty acid synthase (Homo sapiens, UniProt P49327); experiment: inhibition of human FAS-TE enzyme activity – biochemical, endpoint fluorescence intensity, powder samples, SAR follow-up (AID 652164); format: functional
[12] = viability loss in HEK293 cells – cell-based, plate reader, cherry-picked samples, cytotoxicity control, dose response (AID 743446); format: functional
[13] = inhibition of bursicon-driven LGR2 cAMP signaling – cell-based, HEK293, CRE-luciferase reporter, cherry pick, dose response (AID 743342); format: functional
[14] = A549 cell cytotoxicity, dose response, cytotoxicity control, plate reader, cherry-pick, antagonist series (AID 743412); format: functional, cell-based
[15] = blockade of melanocortin 4 receptor signaling – cell-based, plate reader, cherry pick, counter-screen for LGR2 antagonist project, dose response (AID 743444); format: functional;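 also: transfected HEK 293 cells stimulated with alpha-MSH peptide; potency of inhibitors of the alpha-MSH evoked signal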
[16] = molecular target: T1, Small ubiquitin-related modifier 1 (Homo sapiens, UniProt P63165); experiment: SUMO1 protein interaction blockers, potency – biochemical, fluorescence polarization, uHTS hits, dose response (AID 624382); format: functional; settings: read-out: IC50_Mean
[17] = molecular target: Tyrosyl-DNA phosphodiesterase 2 (Homo sapiens, UniProt O95551); experiment: potency against TDP2 phosphodiesterase activity – biochemical, epi absorbance, IC50, dose response (AID 743297)
[18] = molecular target: Dual specificity tyrosine-phosphorylation-regulated kinase 1A (Rattus norvegicus, UniProt Q63470); format: biochemical, Homo sapiens
CAAX prenyl protease 2 [19] = molecular target: CAAX prenyl protease 2 (Homo sapiens, UniProt Q9Y256); experiment: inhibition of Ras-converting CAAX protease Rce1 – biochemical, yeast membranes, quenched-peptide fluorescence, cherry-pick, dose response (AID 588849)
[20] = molecular target: Peroxisome proliferator-activated receptor gamma/Nuclear receptor corepressor 2 (Homo sapiens, UniProt P37231+Q9Y618); format: functional
Major prion protein = Major prion protein (Homo sapiens, UniProt P04156); format: functional, cell-based
[21] = molecular target: Photoreceptor-specific nuclear receptor (Homo sapiens, UniProt Q9Y5X4); format: functional;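 also: potency for compounds that break the NR2E3 corepressor complex and count as activators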
[22] = molecular target: T1, Small ubiquitin-related modifier 1; experiment: SUMO1 protein-protein binding blockers, potency – biochemical, FRET, dose response (AID 624383); format: functional; settings: read-out: IC50_Mean
cells [23] = experiment: cells; remark: listed apart in the source
CAAX prenyl protease 2 [24] = molecular target: T2, CAAX prenyl protease 2 (Saccharomyces cerevisiae S288c, UniProt Q03530); format: biochemical
T2 sequence (Q03530 whole entry): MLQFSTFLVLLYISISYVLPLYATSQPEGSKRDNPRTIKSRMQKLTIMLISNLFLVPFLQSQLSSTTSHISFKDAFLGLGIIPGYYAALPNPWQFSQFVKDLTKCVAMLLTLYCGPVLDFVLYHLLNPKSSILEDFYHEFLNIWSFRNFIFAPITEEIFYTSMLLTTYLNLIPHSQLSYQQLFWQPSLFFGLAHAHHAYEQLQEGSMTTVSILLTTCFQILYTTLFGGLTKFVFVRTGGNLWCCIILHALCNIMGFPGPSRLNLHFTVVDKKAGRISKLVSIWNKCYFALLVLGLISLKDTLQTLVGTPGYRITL

[25] = growth inhibition of replicating M. tuberculosis, dose response, counter-screen, dry powder, IC90 (AID 651617); format: functional; settings: Mycobacterium tuberculosis
[26] = inhibitors of non-replicating M. tuberculosis, dose response, luciferase, dry powder (AID 651619); format: functional; settings: Mycobacterium tuberculosis
[27] = inhibitors of non-replicating M. tuberculosis, dose response, luciferase, dry powder (AID 651620); format: functional; settings: Mycobacterium tuberculosis
[28] = Late stage results for the probe development effort to identify inhibitors of Plasmodium falciparum gametocytes: Luminescence-based cell-based high throughput dose response assay to identify inhibitors of viability of late stage Plasmodium falciparum gametocytes.; format: functional

CCOC(=O)c1s/c(=N\C(=O)c2cccs2)n(C)c1C
EC50 (cells [1]): > 67.5 µM (inactive)
EC50 [2]: > 67.5 µM (inactive)

CCOc1ccc(-c2nc(CN3CCCCC3CCn3cccn3)c(C)o2)cc1 (stereo not given)
IC50 [3]: 12.3 µM (inactive)
CC50 [4]: > 40 µM (active)
IC50 [5]: 9.63 µM (active)
IC50 [6]: 22.2 µM (inactive)

CNC(=O)c1ccc(NC(=O)c2cccc(C(F)(F)F)c2)cc1
AC50 (cells [7]): 49.8 µM (active)

C(=C\c1ccc([C@H]2[C@@H]3CN(Cc4nccs4)C[C@H]2N3)cc1)/c1ccccc1
AC50 [8]: 11.2 µM (active)

COc1ccc(CC(=O)NCc2ccccc2-c2ccccc2C(=O)NCc2ccc(F)cc2F)cc1
IC50 [9]: 0.115 µM (active)
IC50 [10]: 3.2 µM (active)
IC50 [11]: 36.7 µM (active)

CCN(CC)S(=O)(=O)c1ccc(-c2csc(NC(=O)C3CCC3)n2)cc1
IC50 (Fatty acid synthase): 0.985 µM (active)

COc1ccc(S(=O)(=O)N(C)C[C@@H]2OCCCC[C@H](C)Oc3ccc(NS(=O)(=O)c4ccc(F)cc4)cc3C(=O)N([C@@H](C)CO)C[C@@H]2C)cc1
AC50 [12]: > 52 µM (inactive)
AC50 [13]: 58.8 µM (active)
AC50 [14]: 26 µM (active)
AC50 [15]: 42.7 µM (active)

N#CC(C#N)=C1NC(N)=C(C#N)C(c2ccccc2)=C1C#N
IC50 [16]: > 66.6 µM (inactive)
IC50 [17]: > 128 µM (inactive)
AC50 [18]: 4.56 µM (active)
AC50 (CAAX prenyl protease 2 [19]): 8.31 µM (active)
IC50 [20]: 3.22 µM (active)
IC50 (Major prion protein): 1.92 µM (active)
IC50 [21]: 8.41 µM (active)
IC50 [22]: 100 µM (inactive)
IC50 (cells [23]): > 138 µM (inactive)
AC50 (CAAX prenyl protease 2 [24]): > 100 µM (inactive)

[N-]=[N+]=NCCOCCNC(=O)CCCOc1ccc(CSc2nnc(-c3ccc(F)cc3)o2)nc1
IC90 [25]: 250 µM (active)
IC90 [26]: 16 µM (active)
IC90 [27]: 16 µM (active)

O=C(Nc1nccs1)c1cn(-c2ccccc2)nc1-c1cccnc1
IC50 [28]: > 74.4 µM (inactive)
